Test results published in US9302999B2, “Substituted triazoles as herbicides” (E. I. DU PONT DE NEMOURS AND COMPANY, priority 2012, dated 2016).

Key:
Format in all cases: in vivo
soybean (Glycine max) = assay: Test F pre-/postemergence: soybean
Excerpt: (§1) Seeds of plant species selected from corn (Zea mays), soybean (Glycine max), velvetleaf (Abutilon theophrasti), lambsquarters (Chenopodium album), poinsettia, wild (wild poinsettia, Euphorbia heterophylla), pigweed, palmer (palmer pigweed, Amaranthus palmeri), waterhemp (common waterhemp, Amaranthus rudis), surinam grass (Brachiaria decumbens), crabgrass, Brazil (Brazilian crabgrass, Digitaria horizontalis), panicum, fall (fall panicum Panicum dichotomiflorum), crabgrass, large (large crabgrass, Digitaria sanguinalis), foxtail, giant (giant foxtail, Setaria faberii), foxtail, green (green foxtail Setaria viridis), goosegrass (Eleusine indica), ragweed (common ragweed, Ambrosia elatior), barnyardgrass (Echinochloa crus-galli), sandbur (southern sandbur, Cenchrus echinatus), arrowleaf sida (Sida rhombifolia), ryegrass, Italian (Italian ryegrass, Lolium multiflorum), dayflower, VA (Virginia (VA) dayflower, Commelina virginica), field bindweed (Convolvulus arvensis), cocklebur (common cocklebur, Xanthium strumarium), morningglory (Ipomoea coccinea), nightshade (eastern black nightshade, Solanum ptycanthum), kochia (Kochia scoparia), nutsedge, yellow (yellow nutsedge, Cyperus esculentus), johnsongrass (Sorghum halepense), smartweed (ladysthumb smartweed, Polygonum persicaria), and beggarticks (hairy beggarticks, Bidens pilosa), were planted into a silt loam soil and treated preemergence with test chemicals formulated in a non-phytotoxic solvent mixture which included a surfactant. At the same time, plants selected from these crop and weed species and also pigweed (Amaranthus retroflexus), waterhemp_RES1 (ALS/Triazine resistant common waterhemp, Amaranthus rudis) and waterhemp_RES2 (ALS/HPPD resistant common waterhemp, Amaranthus rudis) were planted in pots containing a planting medium comprising spaghnum peat moss, vermiculite, wetting agent and starter nutrients treated with postemergence applications of some of the test chemicals formulated in the same manner. Plants ranged in height from 2 to 18 cm for postemergence treatments (1- to 4-leaf stage).
(§2) Treated plants and controls were maintained in a greenhouse for 14 to 21 days, after which time all species were compared to controls and visually evaluated. Plant response ratings, summarized in Table E, are based on a scale of 0 to 100 where 0 is no effect and 100 is complete control. A dash (-) response means no test result.

[1] = test system: panicum, fall (fall panicum Panicum dichotomiflorum); assay: Test F pre-/postemergence: panicum, fall
Excerpt: as §1, §2

[2] = test system: arrowleaf sida (Sida rhombifolia); assay: Test F pre-/postemergence: arrowleaf sida
Excerpt: as §1, §2

[3] = test system: nutsedge, yellow (yellow nutsedge, Cyperus esculentus); assay: Test F pre-/postemergence: nutsedge, yellow; conditions: Preemergence
Excerpt: as §1, §2

[4] = test system: johnsongrass (Sorghum halepense); assay: Test F pre-/postemergence: johnsongrass; conditions: Preemergence
Excerpt: as §1, §2

[5] = Preemergence, 16 g ai/ha, scale 0 to 100, 0 no effect, 100 complete control
[6] = Preemergence, 31 g ai/ha, scale 0 to 100, 0 no effect, 100 complete control
[7] = Preemergence, 125 g ai/ha, scale 0 to 100
[8] = Preemergence, 250 g ai/ha, scale 0 to 100
[9] = Preemergence, 62 g ai/ha, scale 0 to 100
[10] = 16 g ai/ha, scale 0 to 100, 0 no effect, 100 complete control
[11] = 31 g ai/ha, scale 0 to 100, 0 no effect, 100 complete control
[12] = Postemergence, 8 g ai/ha, scale 0 to 100
[13] = Postemergence, 16 g ai/ha, scale 0 to 100
[14] = Postemergence, 31 g ai/ha, scale 0 to 100
[15] = Postemergence, 125 g ai/ha, scale 0 to 100
[16] = Postemergence, 62 g ai/ha, scale 0 to 100
[17] = Postemergence, 250 g ai/ha, scale 0 to 100

| SMILES | Plant response rating, Soybean (soybean (Glycine max); [5]) | Plant response rating, Soybean (soybean (Glycine max); [6]) | Plant response rating, Soybean (soybean (Glycine max); [7]) | Plant response rating, Soybean (soybean (Glycine max); [8]) | Plant response rating, Panicum, Fall [1, 5] | Plant response rating, Panicum, Fall [1, 6] | Plant response rating, Panicum, Fall [1, 7] | Plant response rating, Panicum, Fall [1, 8] | Plant response rating, Arrowleaf Sida [2, 5] | Plant response rating, Arrowleaf Sida [2, 6] | Plant response rating, Arrowleaf Sida [2, 9] | Plant response rating, Arrowleaf Sida [2, 7] | Plant response rating, Arrowleaf Sida [2, 8] | Plant response rating, Nutsedge, Yellow [3, 10] | Plant response rating, Nutsedge, Yellow [3, 11] | Plant response rating, Nutsedge, Yellow ([3]; 125 g ai/ha, scale 0 to 100) | Plant response rating, Nutsedge, Yellow ([3]; 250 g ai/ha, scale 0 to 100) | Plant response rating, Johnsongrass [4, 11] | Plant response rating, Johnsongrass ([4]; 125 g ai/ha, scale 0 to 100) | Plant response rating, Johnsongrass ([4]; 250 g ai/ha, scale 0 to 100) | further results |
| --- | --- | --- | --- | --- | --- | --- | --- | --- | --- | --- | --- | --- | --- | --- | --- | --- | --- | --- | --- | --- | --- |
| COc1nn(-c2cccc(F)c2)nc1Cc1ccnc(C(F)(F)F)c1 [Compound 139] | 0 | 0 | 0 | 35 | 0 | 25 | 100 | 100 | 0 | 0 | 0 | 0 | 0 | 0 | 0 | 0 | 0 | 75 | 98 | 100 | Plant response rating, Johnsongrass [4, 10]: 0; Plant response rating, Johnsongrass ([4]; 62 g ai/ha, scale 0 to 100): 90 |
| Cc1nn(-c2ccnc(Cl)c2)nc1Cc1ccnc(C(F)(F)F)c1 [Compound 141] |  |  |  |  |  |  |  |  |  |  |  |  |  |  |  |  |  |  |  |  | Plant response rating, Soybean (soybean (Glycine max); [12]): 50; Plant response rating, Soybean (soybean (Glycine max); [13]): 70; Plant response rating, Soybean (soybean (Glycine max); [14]): 80; Plant response rating, Soybean (soybean (Glycine max); [15]): 85; Plant response rating, Panicum, Fall [1, 12]: 30; Plant response rating, Panicum, Fall [1, 13]: 50; Plant response rating, Panicum, Fall [1, 14]: 50; Plant response rating, Panicum, Fall [1, 16]: 60; Plant response rating, Panicum, Fall [1, 15]: 75; Plant response rating, Arrowleaf Sida [2, 12]: 40; Plant response rating, Arrowleaf Sida [2, 13]: 50; Plant response rating, Arrowleaf Sida [2, 14]: 60; Plant response rating, Arrowleaf Sida [2, 16]: 70; Plant response rating, Arrowleaf Sida [2, 15]: 75 |
| Cc1nn(-c2ccc(F)cc2F)nc1Oc1ccnc(C(F)(F)F)c1 [Compound 146] | 0 | 0 | 0 | 0 | 0 | 5 | 100 | 100 | 0 | 0 | 0 | 0 | 10 | 0 | 0 | 0 | 0 | 50 | 70 | 100 | Plant response rating, Johnsongrass [4, 10]: 0; Plant response rating, Johnsongrass ([4]; 62 g ai/ha, scale 0 to 100): 60 |
| CCc1nn(-c2ccc(F)cc2)nc1Cc1ccnc(C(F)(F)F)c1 [Compound 154] | 0 | 0 | 25 | 25 | 15 | 90 | 100 | 100 | 0 | 0 | 0 | 0 | 0 | 0 | 0 | 0 | 0 | 20 | 50 | 98 | Plant response rating, Johnsongrass [4, 10]: 0; Plant response rating, Johnsongrass ([4]; 62 g ai/ha, scale 0 to 100): 25 |
| CCc1nn(-c2ccc(C(F)(F)F)cc2)nc1Oc1ccnc(C(F)(F)F)c1 [Compound 169] | 0 | 0 |  | 20 | 65 | 100 | 100 | 100 | 0 | 0 | 0 | 5 | 5 | 0 | 20 | 25 | 25 | 0 | 50 | 80 | Plant response rating, Soybean (soybean (Glycine max); [17]): 50; Plant response rating, Soybean (soybean (Glycine max); [13]): 20; Plant response rating, Soybean (soybean (Glycine max); [14]): 20; Plant response rating, Soybean (soybean (Glycine max); [16]): 30; Plant response rating, Soybean (soybean (Glycine max); [15]): 40; Plant response rating, Panicum, Fall [1, 17]: 30; Plant response rating, Panicum, Fall [1, 13]: 10; Plant response rating, Panicum, Fall [1, 14]: 15; Plant response rating, Panicum, Fall [1, 16]: 20; Plant response rating, Panicum, Fall [1, 15]: 25; Plant response rating, Arrowleaf Sida [2, 17]: 50; Plant response rating, Arrowleaf Sida [2, 13]: 20; Plant response rating, Arrowleaf Sida [2, 14]: 20; Plant response rating, Arrowleaf Sida [2, 16]: 20; Plant response rating, Arrowleaf Sida [2, 15]: 30; Plant response rating, Johnsongrass [4, 10]: 0; Plant response rating, Johnsongrass ([4]; 62 g ai/ha, scale 0 to 100): 20 |
| CCc1nn(-c2ccc(F)c(F)c2)nc1Oc1ccnc(C(F)(F)F)c1 [Compound 171] | 0 | 0 | 0 | 20 | 0 | 65 | 100 | 100 | 0 | 0 | 15 | 30 | 60 | 0 | 0 | 0 | 0 | 0 | 65 | 75 | Plant response rating, Johnsongrass [4, 10]: 0; Plant response rating, Johnsongrass ([4]; 62 g ai/ha, scale 0 to 100): 10 |
| CCCc1nn(-c2ccc(F)c(F)c2)nc1Oc1ccnc(C(F)(F)F)c1 [Compound 172] |  | 0 | 20 | 20 |  | 75 | 100 | 100 |  | 30 |  | 95 | 100 |  | 25 | 25 | 25 | 50 | 75 | 100 | Plant response rating, Soybean (soybean (Glycine max); [17]): 90; Plant response rating, Soybean (soybean (Glycine max); [14]): 50; Plant response rating, Soybean (soybean (Glycine max); [15]): 75; Plant response rating, Panicum, Fall [1, 17]: 50; Plant response rating, Panicum, Fall [1, 14]: 20; Plant response rating, Panicum, Fall [1, 15]: 50; Plant response rating, Arrowleaf Sida [2, 17]: 100; Plant response rating, Arrowleaf Sida [2, 14]: 65; Plant response rating, Arrowleaf Sida [2, 15]: 90 |
